Laboratory results published in the supplement of paper PMC11451515.

Key:
Conditions in all cases: 48 h
NOMO1 [1] = assay: cell viability relative to DMSO control; higher = less cytotoxic
Summary of the method: (§1)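 Cells were incubated for 48 h at 37°C before CellTiter-Glo One luminescence was read. The cells were NOMO1 or SEM (500 cells/well) or P12-Ichikawa (1000 cells/well) leukemia cells, adapted for at least four passages in each medium and seeded in 1536-well plates (5 μl). Dosing used library compounds in DMSO applied by pin over 11 threefold points, 47 μM to 0.79 nM. Viability is the per-plate percentage of DMSO wells, with cell-free wells as background.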

SEM cells [2] = assay: as above
Summary of the method: as §1

P12-Ichikawa [3] = assay: as above
Summary of the method: as §1

NOMO1 [4] = assay: AUC of viability dose-response curve (% viability x log10 dose units); higher = less sensitive
Summary of the method: (§2)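 Library compounds in DMSO were applied for 48 h at 37°C at 11 threefold doses (47 μM to 0.79 nM) to medium-adapted leukemia cells in 1536-well plates holding 500 or 1000 cells/well. Luminescence from CellTiter-Glo One was normalised plate by plate against DMSO and cell-free wells. Area under the curve came from trapezoidal integration of a log-logistic fit, after scaling curves that rose above full viability and discarding those that failed quality control. The fit had four parameters and used log10 doses.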

SEM cells [5] = assay: as above
Summary of the method: as §2

P12-Ichikawa [6] = assay: as above
Summary of the method: as §2

C[C@H]([C@H](O)CCC(C)(C)O)[C@H]1CC[C@@]2(O)C/3=C/C(=O)[C@@H]4C[C@@H](O)[C@@H](O)C[C@]4(C)[C@H]3CC[C@]12C
cell viability [%]
Conditions	NOMO1 [1]	P12-Ichikawa [3]	SEM cells [2]
HPLM + 10% dialyzed FBS, 0.000781 µM	–	–	111
HPLM + 10% dialyzed FBS, 0.00234 µM	–	–	119
HPLM + 10% dialyzed FBS, 0.00702 µM	–	–	102
HPLM + 10% dialyzed FBS, 0.0211 µM	–	–	122
HPLM + 10% dialyzed FBS, 0.0632 µM	–	–	103
HPLM + 10% dialyzed FBS, 0.19 µM	–	–	109
HPLM + 10% dialyzed FBS, 0.569 µM	–	–	110
HPLM + 10% dialyzed FBS, 1.71 µM	–	–	112
HPLM + 10% dialyzed FBS, 5.12 µM	–	–	108
HPLM + 10% dialyzed FBS, 15.4 µM	–	–	101
HPLM + 10% dialyzed FBS, 46.1 µM	–	–	106
RPMI 5 mM glucose + 10% FBS, 0.000781 µM	112	–	132
RPMI 5 mM glucose + 10% FBS, 0.00234 µM	115	–	104
RPMI 5 mM glucose + 10% FBS, 0.00702 µM	118	–	113
RPMI 5 mM glucose + 10% FBS, 0.0211 µM	107	–	125
RPMI 5 mM glucose + 10% FBS, 0.0632 µM	106	–	115
RPMI 5 mM glucose + 10% FBS, 0.19 µM	112	–	113
RPMI 5 mM glucose + 10% FBS, 0.569 µM	121	–	119
RPMI 5 mM glucose + 10% FBS, 1.71 µM	104	–	123
RPMI 5 mM glucose + 10% FBS, 5.12 µM	119	–	125
RPMI 5 mM glucose + 10% FBS, 15.4 µM	109	–	110
RPMI 5 mM glucose + 10% FBS, 46.1 µM	104	–	98
RPMI 5 mM glucose + 10% dialyzed FBS, 0.000781 µM	122	109	–
RPMI 5 mM glucose + 10% dialyzed FBS, 0.00234 µM	127	125	–
RPMI 5 mM glucose + 10% dialyzed FBS, 0.00702 µM	125	121	–
RPMI 5 mM glucose + 10% dialyzed FBS, 0.0211 µM	137	124	–
RPMI 5 mM glucose + 10% dialyzed FBS, 0.0632 µM	112	131	–
RPMI 5 mM glucose + 10% dialyzed FBS, 0.19 µM	121	122	–
RPMI 5 mM glucose + 10% dialyzed FBS, 0.569 µM	123	119	–
RPMI 5 mM glucose + 10% dialyzed FBS, 1.71 µM	131	121	–
RPMI 5 mM glucose + 10% dialyzed FBS, 5.12 µM	125	120	–
RPMI 5 mM glucose + 10% dialyzed FBS, 15.4 µM	131	107	–
RPMI 5 mM glucose + 10% dialyzed FBS, 46.1 µM	117	113	–

AUC of viability dose-response curve
Conditions	NOMO1 [4]	P12-Ichikawa [6]	SEM cells [5]
HPLM + 10% dialyzed FBS	470	460	461
RPMI 5 mM glucose + 10% FBS	468	452	458
RPMI 5 mM glucose + 10% dialyzed FBS	476	470	474

COc1cc2ncnc(-n3nc(-c4ccccn4)nc3N)c2cc1OC
cell viability [%]
Conditions	NOMO1 [1]	P12-Ichikawa [3]	SEM cells [2]
HPLM + 10% dialyzed FBS, 0.000781 µM	82.3	93.6	75.1
HPLM + 10% dialyzed FBS, 0.00234 µM	102	97.9	95.7
HPLM + 10% dialyzed FBS, 0.00702 µM	111	102	96.7
HPLM + 10% dialyzed FBS, 0.0211 µM	101	99.7	94.2
HPLM + 10% dialyzed FBS, 0.0632 µM	110	95.9	94.9
HPLM + 10% dialyzed FBS, 0.19 µM	93.7	103	103
HPLM + 10% dialyzed FBS, 0.569 µM	95.2	105	79.3
HPLM + 10% dialyzed FBS, 1.71 µM	112	104	83.7
HPLM + 10% dialyzed FBS, 5.12 µM	86.3	88.5	35
HPLM + 10% dialyzed FBS, 15.4 µM	74.8	96	45
HPLM + 10% dialyzed FBS, 46.1 µM	0.936	0.508	1.68
RPMI 5 mM glucose + 10% FBS, 0.000781 µM	83.5	89.2	105
RPMI 5 mM glucose + 10% FBS, 0.00234 µM	86.2	100	103
RPMI 5 mM glucose + 10% FBS, 0.00702 µM	92.7	98.6	114
RPMI 5 mM glucose + 10% FBS, 0.0211 µM	101	101	100
RPMI 5 mM glucose + 10% FBS, 0.0632 µM	88.6	98	85.8
RPMI 5 mM glucose + 10% FBS, 0.19 µM	96.3	105	106
RPMI 5 mM glucose + 10% FBS, 0.569 µM	84.9	107	91.2
RPMI 5 mM glucose + 10% FBS, 1.71 µM	99.3	102	39.1
RPMI 5 mM glucose + 10% FBS, 5.12 µM	84.7	78	3.56
RPMI 5 mM glucose + 10% FBS, 15.4 µM	78	82.7	1.61
RPMI 5 mM glucose + 10% FBS, 46.1 µM	1.29	0.293	1.33
RPMI 5 mM glucose + 10% dialyzed FBS, 0.000781 µM	82.5	83.8	83.2
RPMI 5 mM glucose + 10% dialyzed FBS, 0.00234 µM	89.4	92.6	93.8
RPMI 5 mM glucose + 10% dialyzed FBS, 0.00702 µM	93	90	95.1
RPMI 5 mM glucose + 10% dialyzed FBS, 0.0211 µM	110	81.6	85.7
RPMI 5 mM glucose + 10% dialyzed FBS, 0.0632 µM	98.4	93.2	81.9
RPMI 5 mM glucose + 10% dialyzed FBS, 0.19 µM	96.7	107	99.8
RPMI 5 mM glucose + 10% dialyzed FBS, 0.569 µM	98.5	96.2	83.6
RPMI 5 mM glucose + 10% dialyzed FBS, 1.71 µM	94.5	101	65.7
RPMI 5 mM glucose + 10% dialyzed FBS, 5.12 µM	81.8	82.6	9.89
RPMI 5 mM glucose + 10% dialyzed FBS, 15.4 µM	76.4	82.9	11.4
RPMI 5 mM glucose + 10% dialyzed FBS, 46.1 µM	3.64	0.35	1.21

AUC of viability dose-response curve
Conditions	NOMO1 [4]	P12-Ichikawa [6]	SEM cells [5]
HPLM + 10% dialyzed FBS	437	447	360
RPMI 5 mM glucose + 10% FBS	406	436	326
RPMI 5 mM glucose + 10% dialyzed FBS	418	413	317
